Among the data in patent publication US8399465B2, “Compounds with two fused bicyclic heteroaryl moieties as modulators of leukotriene A4 hydrolase” (Janssen Pharmaceutica NV, priority 2009, dated 2013) are IC50 values, retold here.

pIC50: −log10 of the molar value. Structures can show the parent of a compound that is named as a salt.

In general, pIC50 refers to the IC50 on a negative log10 scale, so that one unit is a factor of ten.

The target of one test is T1, recombinant human LTA4 hydrolase (rhLTA4H) (Homo sapiens, UniProt P09960).
T1 construct: made in house; host or cells: Spodoptera frugiperda (Sf-9) cells, baculovirus (pFastBac1)
T1 sequence (P09960 1-611): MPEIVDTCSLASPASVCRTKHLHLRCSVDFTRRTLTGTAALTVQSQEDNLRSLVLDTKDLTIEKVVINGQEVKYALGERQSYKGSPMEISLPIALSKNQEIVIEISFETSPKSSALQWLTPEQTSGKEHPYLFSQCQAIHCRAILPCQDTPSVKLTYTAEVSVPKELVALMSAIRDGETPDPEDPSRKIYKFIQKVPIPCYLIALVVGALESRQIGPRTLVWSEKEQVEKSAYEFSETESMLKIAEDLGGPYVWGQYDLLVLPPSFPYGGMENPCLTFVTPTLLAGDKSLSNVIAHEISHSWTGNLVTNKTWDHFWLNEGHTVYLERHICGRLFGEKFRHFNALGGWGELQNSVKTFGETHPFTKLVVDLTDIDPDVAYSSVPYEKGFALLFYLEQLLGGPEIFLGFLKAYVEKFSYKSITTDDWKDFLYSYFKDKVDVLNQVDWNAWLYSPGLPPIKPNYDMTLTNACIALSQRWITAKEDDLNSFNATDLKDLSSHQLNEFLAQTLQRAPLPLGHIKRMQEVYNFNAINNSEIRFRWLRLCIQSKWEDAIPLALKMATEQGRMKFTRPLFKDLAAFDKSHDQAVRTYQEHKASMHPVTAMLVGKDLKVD
Briefly: Recombinant human LTA4 hydrolase assay for LTA4 hydrolase inhibitor activity. The format is biochemical.
Conditions: not given
The protocol: Assay 1: Recombinant Human LTA4 Hydrolase Assay for LTA4 Hydrolase Inhibitor Activity
Compounds of the present invention were tested for LTA4 hydrolase inhibitor activity against recombinant human LTA4 hydrolase (rhLTA4H). Vectors were prepared and used to express rhLTA4H essentially as follows: LTA4 hydrolase encoding DNA was amplified by polymerase chain reaction (PCR) using a human placental cDNA library as a template. […] The amplified 1.9 kb DNA fragment encoding LTA4 hydrolase was isolated and cloned into the pFastBac1 vector (Invitrogen). Recombinant baculovirus was generated as described by the manufacturer, and used to infect Spodoptera frugiperda (Sf-9) cells. […] The purified enzyme solution was adjusted to contain 0.29 mg/mL LTA4 hydrolase, 50 mM Tris (pH 8.0), 150 mM NaCl, 5 mM dithiothreitol, 50% glycerol, and EDTA-free Complete protease inhibitor cocktail (Roche).
LTA4 substrate was prepared from the methyl ester of LTA4 (Cayman Chemical) by treatment with 67 equiv of NaOH under nitrogen at rt for 40 min. The LTA4 substrate in its free acid form was kept frozen at −80° C. until needed. Each compound was diluted to different concentrations in assay buffer (from Assay Designs) containing 10% DMSO. A 25-μL aliquot of each compound dilution was incubated for 10 min at rt with an equal volume of assay buffer containing 10 ng of recombinant human LTA4H. The solution was then adjusted to 200 μL with assay buffer. […] Each reaction was carried out at rt for 30 min. The reaction was stopped by diluting 10 μL of the reaction mixture with 200 μL of assay buffer. LTB4 was quantified in the diluted sample by a commercially available enzyme-linked immunoassay (Cayman Chemical Co.), as recommended by the manufacturer. Positive controls, under essentially identical conditions but without addition of an inhibitor compound, and negative controls, containing all assay components except enzyme, were routinely run in each experiment. IC50 values were determined by nonlinear regression of the activity data at different compound concentrations using Graphpad Prism 4.0, one site binding competition.
The values presented here are the result of a single determination or an average of two or more determinations. Compounds that were not tested are indicated as such by a “NT” designation.
For `CC(=O)N1C[C@@H]2C[C@H]1CN2Cc1cc2cc(Oc3nc4cnccc4s3)ccc2o1` [Example 199, (1S,4S)-1-{5-[5-(Thiazolo[4,5-c]pyridin-2-yloxy)-benzofuran-2-ylmethyl]-2,5-diaza-bicyclo[2.2.1]hept-2-yl}-ethanone formate], the pIC50 was 6.47.

Still in this test, the particulars now being: rhLTA4H, LTB4 by immunoassay; single determination or average of two or more; mark after value = form tested: ′ free base, ″ hydrochloride, ^ formate; read-out: IC50.
With `c1cnc2nc(Oc3ccc4oc(CN5CCOCC5)cc4c3)sc2c1` [Example 97, 2-(2-Morpholin-4-ylmethyl-benzofuran-5-yloxy)-thiazolo[4,5-b]pyridine], the pIC50 is 6.71.

In the case of `CC(=O)N[C@H]1C[C@H]2CC[C@@H](C1)N2Cc1cc2cc(Oc3nc4cnccc4s3)ccc2o1` [Example 200, meso-endo-N-{8-[5-(Thiazolo[4,5-c]pyridin-2-yloxy)-benzofuran-2-ylmethyl]-8-aza-bicyclo[3.2.1]oct-3-yl}-acetamide formate], the pIC50 was 5.95.

`CC(=O)N(CC(=O)O)[C@H]1C[C@H]2CC[C@@H](C1)N2Cc1c[nH]c2cc(Oc3nc4ccccc4s3)ccc12` [Example 48, meso-endo-(Acetyl-{8-[6-(benzothiazol-2-yloxy)-1H-indol-3-ylmethyl]-8-aza-bicyclo[3.2.1]oct-3-yl}-amino)-acetic acid]: the pIC50 is 6.17.

Regarding `CC(=O)N1C[C@H]2CC[C@@H](C1)N2Cc1cc2ccc(Oc3nc4cccnc4s3)cc2o1` [Example 124, meso-1-{8-[6-(Thiazolo[5,4-b]pyridin-2-yloxy)-benzofuran-2-ylmethyl]-3,8-diaza-bicyclo[3.2.1]oct-3-yl}-ethanone], the pIC50 is 5.83.

Regarding `O=C1Cc2cc(C(F)(F)F)ccc2N1Cc1coc2cc(Oc3nc4ncccc4s3)ccc12` [Example 400, 1-[6-(Thiazolo[4,5-b]pyridin-2-yloxy)-benzofuran-3-ylmethyl]-5-trifluoromethyl-1,3-dihydro-indol-2-one], the pIC50 is 5.95.

Consider `Fc1cccc2sc(Oc3ccc4oc(CN5CCCCC5)cc4c3)nc12` [Example 84, 4-Fluoro-2-(2-piperidin-1-ylmethyl-benzofuran-5-yloxy)-benzothiazole formate], for which the pIC50 is 6.63.

Regarding `Clc1cnc2nc(Oc3ccc4c(CN5CCOCC5)c[nH]c4c3)sc2c1` [Example 59, 6-Chloro-2-(3-morpholin-4-ylmethyl-1H-indol-6-yloxy)-thiazolo[4,5-b]pyridine], the negative logarithm of the IC50 (pIC50) is 6.95.

As to `c1ccc2sc(Oc3ccc4c(CN5CCc6sc7ccccc7c6C5)c[nH]c4c3)nc2c1` [Example 39, 2-[6-(Benzothiazol-2-yloxy)-1H-indol-3-ylmethyl]-1,2,3,4-tetrahydro-benzo[4,5]thieno[3,2-c]pyridine formate], the pIC50 is 6.56.

Regarding `CC(=O)NCc1coc2cc(Oc3nc4ncccc4s3)ccc12` [Example 395, N-[6-(Thiazolo[4,5-b]pyridin-2-yloxy)-benzofuran-3-ylmethyl]-acetamide], the pIC50 was 7.07.

As to `c1ccc2sc(Oc3ccc4[nH]cc(CN5CCOCC5)c4c3)nc2c1` [Example 11, 2-(3-Morpholin-4-ylmethyl-1H-indol-5-yloxy)-benzothiazole], the pIC50 was 5.85.

Turning to `c1ccc2sc(Oc3ccc4[nH]cc(CCN5CCCCC5)c4c3)nc2c1` [Example 74, 2-[3-(2-Piperidin-1-yl-ethyl)-1H-indol-5-yloxy]-benzothiazole], the pIC50 was 5.69.

As to `c1ccc2c(c1)CC(NCc1coc3cc(Oc4nc5ncccc5s4)ccc13)C2` [Example 320, Indan-2-yl-[6-(thiazolo[4,5-b]pyridin-2-yloxy)-benzofuran-3-ylmethyl]-amine formate], the pIC50 was 7.82.

On to `O=C(O)CN1CCN(Cc2cc3ccc(Oc4nc5ccccc5s4)cc3o2)CC1` [Example 79, {4-[6-(Benzothiazol-2-yloxy)-benzofuran-2-ylmethyl]-piperazin-1-yl}-acetic acid formate], for which the pIC50 is 6.34.

On to `CC(=O)N1C[C@@H]2C[C@H]1CN2Cc1cc2ncc(Oc3nc4ncccc4s3)cc2o1` [Example 274, (1S,4S)-1-{5-[6-(Thiazolo[4,5-b]pyridin-2-yloxy)-furo[3,2-b]pyridin-2-ylmethyl]-2,5-diaza-bicyclo[2.2.1]hept-2-yl}-ethanone formate], for which the pIC50 is 6.60.

Turning to `CC(=O)N1CCC2(CCN(Cc3coc4cc(Oc5nc6ncccc6s5)ccc34)CC2)C1` [Example 265, 1-{8-[6-(Thiazolo[4,5-b]pyridin-2-yloxy)-benzofuran-3-ylmethyl]-2,8-diaza-spiro[4.5]dec-2-yl}-ethanone], the pIC50 is above 9.00.

With `COc1ccc(CNCc2coc3cc(Oc4nc5ncccc5s4)ccc23)cc1` [Example 346, (4-Methoxy-benzyl)-[6-(thiazolo[4,5-b]pyridin-2-yloxy)-benzofuran-3-ylmethyl]-amine], the pIC50 is 7.89.

Consider `O=C(c1coc2cc(Oc3nc4ncccc4s3)ccc12)N1CCc2ccccc2C1` [Example 386, (3,4-Dihydro-1H-isoquinolin-2-yl)-[6-(thiazolo[4,5-b]pyridin-2-yloxy)-benzofuran-3-yl]-methanone], for which the pIC50 was 6.68.

For `O=C1Cc2ccc(C(F)(F)F)cc2N1Cc1coc2cc(Oc3nc4ncccc4s3)ccc12` [Example 398, 1-[6-(Thiazolo[4,5-b]pyridin-2-yloxy)-benzofuran-3-ylmethyl]-6-trifluoromethyl-1,3-dihydro-indol-2-one], the pIC50 is 6.33.

Take `O=C(O)C1CCN(CCc2c[nH]c3ccc(Oc4nc5ccccc5s4)cc23)CC1` [Example 73, 1-{2-[5-(Benzothiazol-2-yloxy)-1H-indol-3-yl]-ethyl}-piperidine-4-carboxylic acid]: the pIC50 was 5.46.

Turning to `FC1CCN(Cc2cc3ccc(Oc4nc5ncccc5s4)cc3o2)CC1` [Example 190, 2-[2-(4-Fluoro-piperidin-1-ylmethyl)-benzofuran-6-yloxy]-thiazolo[4,5-b]pyridine formate], the pIC50 was 6.94.

Consider `CC(=O)N1C[C@H]2CC[C@@H](C1)N2Cc1cc2ncc(Oc3nc4ncccc4s3)cc2o1` [Example 338, meso-1-{8-[6-(Thiazolo[4,5-b]pyridin-2-yloxy)-furo[3,2-b]pyridin-2-ylmethyl]-3,8-diaza-bicyclo[3.2.1]oct-3-yl}-ethanone formate], for which the pIC50 is 6.35.

On to `O=C(C1CCN(Cc2cc3ccc(Oc4nc5ncccc5s4)cc3o2)CC1)N1CCCC1` [Example 205, Pyrrolidin-1-yl-{1-[6-(thiazolo[4,5-b]pyridin-2-yloxy)-benzofuran-2-ylmethyl]-piperidin-4-yl}-methanone], for which the pIC50 is 6.92.

In the case of `CC(=O)NC1CCN(Cc2cc3ccc(Oc4nc5ncccc5s4)cc3o2)C1` (stereo not shown) [Example 120, N-(1-{[6-([1,3]thiazolo[4,5-b]pyridin-2-yloxy)-1-benzofuran-2-yl]methyl}pyrrolidin-3-yl)acetamide formate], the pIC50 is 6.84.

For the compound `O=C(Cc1ccc(Cl)cc1)NCc1coc2cc(Oc3nc4ncccc4s3)ccc12` [Example 394, 2-(4-Chloro-phenyl)-N-[6-(thiazolo[4,5-b]pyridin-2-yloxy)-benzofuran-3-ylmethyl]-acetamide], the pIC50 was 7.07.

Regarding `c1cnc2nc(Oc3ccc4cc(CN5CCCCC5)sc4c3)sc2c1` [Example 136, 2-(2-Piperidin-1-ylmethyl-benzo[b]thiophen-6-yloxy)-thiazolo[4,5-b]pyridine], the pIC50 was 6.93.

Regarding `c1ccc2sc(Oc3ccc4oc(CN5CCCCC5)cc4c3)nc2c1` [Example 82, 2-(2-Piperidin-1-ylmethyl-benzofuran-5-yloxy)-benzothiazole formate], the pIC50 is 6.72.

For the compound `NS(=O)(=O)c1ccc(CCNCc2coc3cc(Oc4nc5ccccc5s4)ccc23)cc1` [Example 311, 4-(2-{[6-(Benzothiazol-2-yloxy)-benzofuran-3-ylmethyl]-amino}-ethyl)-benzenesulfonamide], the pIC50 was 6.64.
